According to US9371336B2, “Compounds for treating spinal muscular atrophy” (PTC Therapeutics Inc., priority 2012, dated 2016):

Key:
[1] = test system: SMN2 full length and Δ7 mRNA; assay: Endogenous SMN2 mRNA RT-qPCR splicing assay in cultured cells (GM03813 SMA patient cells); format: cell-based, human; conditions: Type 1 SMA patient fibroblasts GM03813, increasing concentrations, 24 hr, RT-qPCR (FIG. 4)
Protocol: The reverse transcription-quantitative PCR-based (RT-qPCR) assay is used to quantify the levels of the SMN2 full length and Δ7 mRNA in primary cells and cell lines containing the SMN2 gene treated with a test compound.
GM03813 SMA patient cells (5,000 cells/well) are seeded in 200 μL, of cell culture medium (DMEM plus 10% FBS) in 96-well flat-bottom plates and the plate is immediately swirled to ensure proper dispersal of cells, forming an even monolayer of cells. Cells are allowed to attach for at least 4-6 hrs. Test compounds are serially diluted 3.16-fold in 100% DMSO to generate a 7-point concentration curve. A solution of test compound (1 μL, 200× in DMSO) is added to each test well and 1 μL, DMSO is added to each control well. The plate is incubated for 24 hrs in a cell culture incubator (37° C., 5% CO2, 100% relative humidity). The cells are then lysed in Cells-To-Ct lysis buffer and the lysate is stored at 80° C.
SMN2-specific spliced products and GAPDH mRNA are identified using the following primers and probes in Table 5. Primer SMN FL Forward B (SEQ ID NO. 7) hybridizes to a nucleotide sequence in exon 7 (nucleotide 32 to nucleotide 54) and exon 8 (nucleotide 1 to nucleotide 4), primer SMN Δ7 Forward B (SEQ ID NO. 8) hybridizes to a nucleotide sequence in exon 6 (nucleotide 87 to nucleotide 111) and exon 8 (nucleotide 1 to nucleotide 3), primer SMN Reverse B (SEQ ID NO. 9) hybridizes to a nucleotide sequence in exon 8 (nucleotide 39 to nucleotide 62), probe SMN Probe B (SEQ ID NO. 10) hybridizes to a nucleotide sequence in exon 8 (nucleotide 7 to nucleotide 36). These primers and probes hybridize to nucleotide sequences common to human SMN1 and SMN2 mRNA. Since the SMA patient cells used in Example 3 contain only the SMN2 gene, RT-qPCR can quantify only SMN2 full-length and Δ7 mRNA.
The SMN forward and reverse primers are used at final concentrations of 0.4 μM. The SMN probe is used at a final concentration of 0.15 μM. GAPDH primers are used at final concentrations of 0.1 μM and the probe at 0.075 μM. […]
The increase of SMN2 FL and decrease in SMN2 Δ7 mRNA relative to those in cells treated with vehicle control are determined from real-time PCR data using a modified ΔΔCt method (as described in Livak and Schmittgen, Methods, 2001, 25:402-8). The amplification efficiency (E) is calculated from the slope of the amplification curve for SMN2 FL, SMN2 Δ7, and GAPDH individually. The abundances of SMN2 FL, SMN2 Δ7, and GAPDH are then calculated as (1+E)^−Ct, where Ct is the threshold value for each amplicon. […]

CN1CCN(c2ccc3cc(-c4nc5c(Cl)cccc5s4)c(=O)oc3n2)CC1 [Cpd 5, 3-(4-chloro-1,3-benzothiazol-2-yl)-7-(4-methylpiperazin-1-yl)-2H-pyrano[2,3-b]pyridin-2-one]
SMN2 FL mRNA relative to vehicle [1]: progressively more SMN2 FL mRNA
SMN2 Δ7 mRNA relative to vehicle [1]: less SMN2 Δ7 mRNA
melting point: 258 to 260 °C

Cc1ccc2nc(-c3cc4ccc(N5CCN(C)CC5)nc4oc3=O)cn2c1 [Cpd 27, 3-(6-methylimidazo[1,2-a]pyridin-2-yl)-7-(4-methylpiperazin-1-yl)-2H-pyrano[2,3-b]pyridin-2-one]
SMN2 FL mRNA relative to vehicle [1]: progressively more SMN2 FL mRNA
SMN2 Δ7 mRNA relative to vehicle [1]: less SMN2 Δ7 mRNA
melting point: 260 to 264 °C
